The values that follow come from patent publication US20260364078A1, “PURINE NUCLEOSIDE PHOSPHORYLASE INHIBITORS FOR THE TREATMENT OF METABOLIC SYNDROME AND ASSOCIATED CONDITIONS” (METASHAPE PHARMA AG, priority 2022, published 2026).

Structures are written as SMILES. ≈ marks a conversion by molar mass, not a printed value. Where two headings read alike, the source gives them in different places.

Series [1] concerns DIO mouse model. Put plainly: Example 3: liver parameters in DIO mouse model. The format is in vivo, C57/BL6J mice. The note with it: 2 mg/kg p.o., 3 days a week, 8 weeks. The source says: The aim of this study is to determine the effect of low and intermittent dosing of ulodesine hemi glutarate on the liver parameters: liver weight, total cholesterol, triglycerides, AST and ALT. The study assessed ulodesine hemi glutarate efficacy on the listed parameters in the DIO mouse model of obesity and metabolic dysfunction.
Method: C57/BL6J mice were fed obesogenic diet D12492 (60 kcal % fat) from age 6 weeks. Eighteen weeks old mice (approximately 40 g) were either treated with vehicle (control) or ulodesine hemi glutarate at 2 mg/kg for 3 days a week (days 1, 2 and 3) given orally for 8 weeks. At the end of eight weeks, the liver was removed and the following parameters were assessed: total cholesterol, triglycerides, AST and ALT.

Series [2] deals with DIO mouse model. Put plainly: Example 2: low and intermittent dosing in DIO mouse model. The note with it: 2 mg/kg p.o., 3 days a week, vs control. The format is in vivo, C57/BL6J mice. An excerpt: The aim of this study is to determine the effect of a low and intermittent dosing regime of ulodesine hemi glutarate on the following parameters: weight gain, food intake, fasting blood glucose concentration, serum insulin, serum cholesterol, plasma liver enzymes aspartate aminotransferase (AST) and alanine transaminase (ALT), inguinal white adipose tissue (iWAT), BAT; inosine in plasma and NAD+ in whole blood, and expression of lipogenesis (fatty acid synthesis) markers in iWAT and thermogenic markers in BAT. The study will assess ulodesine hemi glutarate efficacy on the listed parameters in the DIO mouse model of obesity and metabolic dysfunction.
Method: C57/BL6J mice were fed obesogenic diet D12492 (60 kcal % fat) from age 6 weeks. Nineteen week old mice (approximately 50 g) were either treated with vehicle (control) or ulodesine hemi glutarate at 2 mg/kg for 3 days a week (days 1, 2 and 3), given orally, over a 28 day period. On day minus 2 and on day 28, animals were fasted for 6 hr (only food withdrawn) and blood was collected for both blood glucose and cholesterol. On day 28 plasma liver enzymes (AST and ALT) and insulin were determined and additional plasma and whole blood was frozen and used for inosine and NAD+ measurement. BAT and iWAT was collected at the end of the study, weighed and quantitative PCR was performed for the lipogenesis markers Stearoyl CoA desaturase 1 (SCD-1) and fatty acid synthetase (FAS) and the thermogenesis marker uncoupling protein 1 (UCP-1). Inosine and NAD+ levels in stored plasma and whole blood respectively were determined by LC/MS/MS.

Series [3] can be described thus: Polymorph form conversion / solid-state stability (XRPD, VT-XRPD). It is filed as physicochemical. The protocol: To confirm stability and suitability of Ulodesine hemi-glutarate Type A, a polymorph screening was conducted to search for other potential crystal forms and identify the most suitable form to confirm the previous findings.
Using glutarate Type A as starting material, a polymorph screening was conducted under 100 conditions through methods of anti-solvent addition, solid vapor diffusion, liquid vapor diffusion, slow evaporation, polymer-induced crystallization, temperature cycling, slurry at room temperature (RT)/50 °C and slow cooling.
X-ray powder diffraction data at variable temperature was collected at on a Malvern Panalytical Empyrean diffractometer. Flat a few milligrams of sample on a sample holder and compact it by a glass slide with protection of a piece of weighting paper. An X-ray generator of 1800 W was employed at 45 kV and 40 mA and was equipped with an X-ray tube of Cu (Kα), with the Kα2/Kα1 intensity ratio of 0.50 (1.54439 Å/1.5406 Å). Data were collected from 3° to […] (2θ) at a step size of 0.026° (2θ) with time per step of 49.7 s.
Glutarate Type B (E0007-A01-06) was only observed by heating glutarate Type A to 130 °C using X-ray powder diffractometer at variable temperature mode (VT-XRPD).
Based on the characterization results, glutarate Type C was speculated as a channel hydrate (the water molecules of a channel hydrate lie next to other water molecules of adjoining unit cell, forming channels through the crystals).
Type C was re-prepared at 100 mg in triplicate via temperature cycling slurry in anisole/MeOH (1:2, v/v).

Series [4] in a line: Hygroscopicity by DVS at 25 °C. It is filed as physicochemical. The protocol: To understand the hygroscopicity of glutarate type A, DVS was employed to measure the mass change as a function of relative humidity at 25 °C (FIG. 14).
Dynamic vapour sorption was performed with ADVENTURE series DVS and Intrinsic-1 DVS at 25 °C under nitrogen blow. Approximately 30 milligrams of material were used. Anhydrate was analyzed using methods below: 0% RH to 95% RH to 0% RH at 10% RH (5% RH from 90% RH to 95% RH to 90% RH). After equilibrium at ambient conditions (50% RH), the hydrate sample was analyzed using method below: 1. Ambient relative humidity to 95% RH at 10% RH (5% from 90% RH to 95% RH). 2. 95% RH to 0% RH at 10% RH (5% from 95% RH to 90% RH). 3. 0% RH to 95% RH at 10% RH (5% RH from 90% RH to 95% RH).
The moisture sorption profile was generated at 25 °C using a DVS moisture balance flow system (Model Advantage 1.0) with the following conditions: sample size approximately 10 mg, drying 25 °C for 60 minutes, adsorption range 0% to 95% RH, desorption range 95% to 0% RH, and step interval 5%. The equilibrium criterion was <0.01% weight change in 5 minutes for a maximum of 120 minutes.

Series [5] in a line: Kinetic solubility (37 °C/24 h). It is filed as physicochemical.
Series [6] can be described thus: Drying stability (vacuum, RT/50/70 °C). It is filed as physicochemical.
Series [7] can be described thus: Physicochemical stability (2-week, open conditions). The note with it: for remaining at 336 h: 2-week; for remaining at 336 h / remaining at 240 h: read-out: Purity; for remaining at 240 h: 10-day. The source says:
SHIMADZU LC-20AD was employed to detect the chemical purity HPLC method for purity test

A short description of series [8]: Approximate solubility of starting material at RT. It is filed as physicochemical. The conditions noted are these: RT (~27 °C). The protocol: The solubility of starting material (E0007-A01-02) was estimated at RT (~27 °C).
Specifically, approximate 2 mg of solid was added into an HPLC glass vial. The solvents below were then added stepwise ([…]) into the vials until the solids were dissolved or a total volume of 1.0 mL was reached.
The solubility data were used to guide the solvent selection in polymorph screening. Approximate solubility of starting material (E0007-A01-02) at RT: […]

Series [9] in a line: Physicochemical stability (2-week, open conditions).

Consider `O=c1[nH]cnc2c(CN3C[C@H](CO)[C@@H](O)C3)c[nH]c12` [ulodesine], for which, in the series with DIO mouse model [1], the “liver ALT” value is “decreases in triglycerides and ALT with treatment they did not achieve statistical significance”; the “liver AST” value was “significant decrease”; the “liver total cholesterol (TC)” value is “significant decrease”; the liver triglycerides result is “decreases in triglycerides and ALT with treatment they did not achieve statistical significance”. Further, in the series with DIO mouse model [2] (28 days), the blood glucose result is “decreases”, the iWAT/Body weight % entry is recorded as “significant decrease” and the plasma cholesterol result is on record as “decreases”. Besides, in the series with DIO mouse model [2] (day 28), the insulin levels result is “decreases”, the “plasma ALT” value is recorded as “decreases” and the “plasma AST” value is on record as “decreases”.

On to `O=c1[nH]cnc2c(CN3C[C@H](CO)[C@@H](O)C3)c[nH]c12` [Glutarate Type B], for which the “form conversion on cooling back to RT” value in [3] (after heating to 130 °C, cooled to RT) is “quickly converted to glutarate Type A”. In [3] (ambient condition), the solid form stability entry is recorded as “meta-stable form at ambient condition”.

As to `O=c1[nH]cnc2c(CN3C[C@H](CO)[C@@H](O)C3)c[nH]c12` [Glutarate Type C], the “form change after heating to 110 °C” value in series [3] (110 °C) is reported as “no form change”. For the same compound, the “form change after drying” value in [3] (RT overnight) is “no form change”. Moreover, the “Form change after heating” value in [3] (after heating) is “No”. For the same compound, the “stability compared with glutarate Type A” value in series [3] (drying under ambient condition) is reported as “lower stability compared with glutarate Type A”. Moreover, the “form conversion after drying under ambient condition” value in series [3] (wet cakes from screening, ~25 °C/30% RT) is “(partially) converted to glutarate Type A”; in [3] (wet cakes, ~6 h (~20 °C/32% RH)), “converted to glutarate Type A”.

In the case of `O=c1[nH]cnc2c(CN3C[C@H](CO)[C@@H](O)C3)c[nH]c12` [Glutarate Type A], the water uptake in series [4] (25 °C/80% RH) amounted to 1.1%; in [4] (25 °C/95% RH), 10.4%. Besides, the hygroscopicity result in series [4] (25 °C/80% RH, in words) was “slightly hygroscopic”. In series [4] (XRPD after DVS), the “form change after DVS” value is “no form change”. Moreover, the solubility (kinetic) at 24 h in series [5] (FaSSIF), in [5] (FeSSIF), in [5] (SGF) and in [5] (water) was greater than 16800 µg/mL throughout. Also, the “change in crystallinity on vacuum drying” value in series [6] (70 °C) is “slight decrease”; in series [6] (overnight, 50 °C), “no change in crystallinity”; in [6] (overnight, RT), “no change in crystallinity”. The “solid-state properties and stability” value in series [3] (polymorph screening overall) is “good solid-state properties and stability”. Further, the results for the remaining at 336 h in series [7] (25 °C/60% RH), in series [7] (40 °C/75% RH) and in series [7] (60 °C) were 97.8%, 97.7% and 97.3%, respectively. Besides, the values for the remaining at 240 h in series [7] (25 °C/60% RH), in [7] (40 °C/75% RH) and in [7] (60 °C) were 97.7%, 97.8% and 97.6%, respectively. The Initial purity in series [7] (initial) came out at 97.9 area %. Moreover, the solubility (commonly how much of the substance goes into solution per volume) in series [8] (H2O) was greater than 36000 µg/mL; in [8] (organic solvent or mixture, 1,4-Dioxane), less than 2000 µg/mL; in series [8] (organic solvent or mixture, 2-MeTHF), less than 1900 µg/mL; in [8] (organic solvent or mixture, ACN), less than 1900 µg/mL; in series [8] (organic solvent or mixture, Acetone/H2O (9:1)), less than 1900 µg/mL; in series [8] (organic solvent or mixture, Acetone) it was less than 2100 µg/mL. The solubility in series [8] (organic solvent or mixture, CPME) was less than 1900 µg/mL; in [8] (organic solvent or mixture, DCM/MeOH (1:1)), less than 1900 µg/mL; in series [8] (organic solvent or mixture, DCM), less than 1800 µg/mL; in series [8] (organic solvent or mixture, DMAc), 2000 to 6500 µg/mL (≈ 7.57 to 24.6 mM); in [8] (organic solvent or mixture, DMF), 2300 to 7600 µg/mL (≈ 8.7 to 28.8 mM); in series [8] (organic solvent or mixture, DMSO) it was greater than 39600 µg/mL. For the same compound, the solubility in [8] (organic solvent or mixture, EtOAc) is less than 2100 µg/mL; in series [8] (organic solvent or mixture, EtOH/H2O (2:1)), 22600 to 45200 µg/mL (≈ 85.5 to 171 mM); in series [8] (organic solvent or mixture, EtOH/H2O (4:1)) it was 2100 to 6900 µg/mL (≈ 7.95 to 26.1 mM); in [8] (organic solvent or mixture, EtOH/H2O (9:1)) it was less than 2000 µg/mL; in series [8] (organic solvent or mixture, EtOH), less than 2100 µg/mL; in series [8] (organic solvent or mixture, IPA), less than 1800 µg/mL. The solubility in [8] (organic solvent or mixture, IPAc) is less than 2000 µg/mL; in series [8] (organic solvent or mixture, MEK), less than 1900 µg/mL; in [8] (organic solvent or mixture, MIBK) it was less than 1800 µg/mL; in series [8] (organic solvent or mixture, MTBE), less than 2000 µg/mL; in series [8] (organic solvent or mixture, MeOH) it was 1900 to 6500 µg/mL (≈ 7.19 to 24.6 mM); in series [8] (organic solvent or mixture, NMP) it was 1900 to 6300 µg/mL (≈ 7.19 to 23.8 mM). Besides, the solubility in [8] (organic solvent or mixture, THF/H2O (9:1)) was less than 2000 µg/mL; in [8] (organic solvent or mixture, THF), less than 2000 µg/mL; in series [8] (organic solvent or mixture, Toluene) it was less than 1900 µg/mL; in series [8] (organic solvent or mixture, n-Heptane), less than 2000 µg/mL. Besides, the Form change result is on record as “No” in series [9] (2-week, 25 °C/60% RH); “No” in [9] (2-week, 40 °C/75% RH); “No” in series [9] (2-week, 60 °C); “No” in series [9] (10-day, 25 °C/60% RH); “No” in series [9] (10-day, 40 °C/75% RH); “No” in series [9] (10-day, 60 °C).
